Assay results from US20050043379A1, “LTA4H Modulators” (priority 2003, published 2005).
Where a name gives a salt, the structure may show the parent alone.

Tested on: neutrophil influx (myeloperoxidase activity) in arachidonic acid-treated ear
Assay: Murine arachidonic acid-induced inflammation model: neutrophil influx by myeloperoxidase (MPO) activity in ear biopsies
Format: in vivo, mouse (female Balb/c)
Conditions: Mus musculus, TABLE 7, 30 mg/kg oral gavage, ear biopsies 3 h after topical arachidonic acid (given 60 min after dose), read-out: % Inh. MPO
Description: Murine Arachidonic Acid-induced Inflammation Model LTA4H inhibitor compounds of the present invention were dissolved in 20% cyclodextran/H2O at a concentration of 3 mg/mL. The solutions were administered by oral gavage to female Balb/c mice weighing approximately 20 grams each (0.2 mL per mouse, 30 mg of LTA4H inhibitor compound per kg). Sixty minutes after being administered an LTA4 inhibitor, each mouse received topical application of 20 μL of arachidonic acid (100 mg/mL in acetone) to the left ear and 20 μL of acetone only to the right ear. After 3 h, the mice were sacrificed, blood was withdrawn in heparinized syringes, and 8 mm ear biopsies were taken. Ear biopsies were weighed to determine edema and then frozen at -80° C. until needed for determination of neutrophil influx. Neutrophil influx was quantified by measuring the activity of myeloperoxidase (MPO), a neutrophil-specific enzyme. […] Debris was removed by centrifugation at 14000×g for 10 min. […] The microtiter plate contents were held at room temperature for 1 h. The reaction was stopped by addition of 100 μ[…] H2SO4 to each sample well, and the myeloperoxidase activity in each sample was determined from the absorbance at 405 nm. The background value from the right ear, treated only with acetone, was subtracted from that for the left ear, treated with arachidonic acid in acetone, for each animal. The percent inhibition of neutrophil influx (% Inh. MPO) by compounds of the invention was determined by comparison to animals treated identically, except that the solution administered by oral gavage was devoid of inhibitor compound.

| Compound | inhibition at 30 mg/kg [%] |
| --- | --- |
| c1ccc2oc(Oc3ccc(OCCN4CCCCC4)cc3)nc2c1 [Example 11, 2-[4-(2-Piperidin-1-yl-ethoxy)-phenoxy]-benzooxazole] | 95 |
| OC1CCN(CCOc2ccc(Oc3nc4ccccc4o3)cc2)CC1 [Example 14, 1-{2-[4-(Benzooxazol-2-yloxy)-phenoxy]-ethyl}-piperidin-4-ol] | 56 |
| OC1(c2ccccc2)CCN(CCCOc2ccc(Oc3nc4ccccc4o3)cc2)CC1 [Example 27, 1-{3-[4-(Benzooxazol-2-yloxy)-phenoxy]-propyl}-4-phenyl-piperidin-4-ol] | 72 |

Same assay, conditions: Mus musculus, TABLE 8, 30 mg/kg oral gavage, ear biopsies 3 h after topical arachidonic acid (given 60 min after dose), read-out: % Inh. MPO

| Compound | inhibition at 30 mg/kg [%] |
| --- | --- |
| O=C(O)C1CCCN(CCc2ccc(Oc3nc4ccccc4s3)cc2)C1 (stereo not drawn) [Example 155, 1-{2-[4-(Benzothiazol-2-yloxy)-phenyl]-ethyl}-piperidine-3-carboxylic acid] | 93 |
| CS(=O)(=O)NC1CCN(Cc2ccc(Oc3nc4ccccc4s3)cc2)CC1 [Example 361, N-{1-[4-(Benzothiazol-2-yloxy)-benzyl]-piperidin-4-yl}-methanesulfonamide] | 90 |
| O=C1C[C@@H](O)CN1C1CCN(Cc2ccc(Oc3nc4ccccc4s3)cc2)CC1 [Example 446, 1-{1-[4-(Benzothiazol-2-yloxy)-benzyl]-piperidin-4-yl}-4-hydroxy-pyrrolidin-2-one] | 43 |
| c1ccc2sc(Oc3ccc(OCCn4nnnc4C4CCNCC4)cc3)nc2c1 [Example 206, 2-{4-[2-(5-Piperidin-4-yl-tetrazol-1-yl)-ethoxy]-phenoxy}-benzothiazole] | 76 |
| OCC1CCCCN1CCOc1ccc(Oc2nc3ccccc3s2)cc1 (stereo not drawn) [Example 263, (1-{2-[4-(Benzothiazol-2-yloxy)-phenoxy]-ethyl}-piperidin-2-yl)-methanol] | 19 |
| O=C(O)C1CCN(Cc2ccc(Oc3nc4ccccc4s3)cc2)CC1 [Example 250, 1-[4-(Benzothiazol-2-yloxy)-benzyl]-piperidine-4-carboxylic acid] | 94 |
| O=C(CO)N1CCN(CCc2ccc(Oc3nc4ccccc4s3)cc2)CC1 [Example 325, 1-(4-{2-[4-(Benzothiazol-2-yloxy)-phenyl]-ethyl}-piperazin-1-yl)-2-hydroxy-ethanone] | 67 |
| NC(=O)C1CCN(Cc2ccc(Oc3nc4ccccc4s3)cc2)CC1 [Example 274, 1-[4-(Benzothiazol-2-yloxy)-benzyl]-piperidine-4-carboxylic acid amide] | 87 |
| O=C(O)C1CCN(CCc2ccc(Oc3nc4ccccc4s3)cc2)CC1 [Example 150, 1-{2-[4-(Benzothiazol-2-yloxy)-phenyl]-ethyl}-piperidine-4-carboxylic acid] | 91 |
| O=C1C[C@H](O)CN1C1CCN(CCc2ccc(Oc3nc4ccccc4s3)cc2)CC1 [Example 336, (S)-1-(1-{2-[4-(Benzothiazol-2-yloxy)-phenyl]-ethyl}-piperidin-4-yl)-4-hydroxy-pyrrolidin-2-one] | 0 |
| O=C1C[C@H](O)CN1C1CCN(Cc2ccc(Oc3nc4ccccc4s3)cc2)CC1 [Example 447, 1-{1-[4-(Benzothiazol-2-yloxy)-benzyl]-piperidin-4-yl}-4-hydroxy-pyrrolidin-2-one] | 48 |

Same assay, conditions: Mus musculus, po, read-out: % Inh. MPO

| Compound | inhibition at 30 mg/kg [%] |
| --- | --- |
| O=C(O)C1CCN(CCOc2ccc(Oc3nc4ccccc4s3)cc2)CC1 [Example 18, 1-{2-[4-(Benzothiazol-2-yloxy)-phenoxy]-ethyl}-piperidine-4-carboxylic acid potassium salt] | 83 |

Tested on: ionophore-induced LTB4 production
Assay: not given
Conditions: oral administration; cited from earlier work

| Compound | inhibition of ionophore-induced LTB4 production in mouse blood ex vivo |
| --- | --- |
| CN(CCCOc1ccc(Cc2ccccc2)cc1)CCC(=O)O.Cl [SC57461] | caused inhibition of ionophore-induced LTB4 production |

Tested on: ionophore-induced LTB4 production
Assay: not given
Conditions: oral administration; cited from earlier work
Remark: another data set of the same source

| Compound | inhibition of ionophore-induced LTB4 production in rat peritoneum in vivo |
| --- | --- |
| CN(CCCOc1ccc(Cc2ccccc2)cc1)CCC(=O)O.Cl [SC57461] | caused inhibition of ionophore-induced LTB4 production |

Tested on: colitis symptoms
Assay: not given
Conditions: eight weeks of treatment; cited from earlier work

| Compound | colitis symptoms |
| --- | --- |
| CN(CCCOc1ccc(Cc2ccccc2)cc1)CCC(=O)O.Cl [SC57461] | significantly improved colitis symptoms |
